Experimental data: patent US11504369B2, “Cytosine-based TET enzyme inhibitors” (President and Trustees of Bates College, priority 2019, dated 2022)
Entries after “also recorded” stand apart in the source; their conditions may differ. Blank lines part the entries; values can stand above or below the compound they belong to.

Tests used:
TET2 = molecular target: T1, TET2 (Homo sapiens, UniProt Q6N021); experiment: Chemiluminescence ELISA of TET2-mediated oxidation of methylated DNA; type: biochemical; conditions: dose-response
T1 construct: purchased Bioscience 50652
Procedure: Procedure adapted from manual (Bioscience; TET1: 50651, TET2: 50652). Prepare TBST buffer (1× TBS, pH 8.0, containing 0.05% Tween-20). […] Dilute primary antibody 100-fold with blocking buffer. Diluted secondary antibody 1000-fold with blocking buffer. […] To 96-well plate provided, add 200 μl TBST buffer to each well and incubate at room temperature for 15 min. Remove TBST buffer and add 20 μl 1.5× TAB, 10 μl inhibitor solution, 20 μl diluted TET to each well. For controls, add 10 μl 5% DMSO solution and 20 μl 1.0× TAB. Incubate at room temperature for 2 h. Remove reaction solution and wash 3× with TBST buffer (200, 200, and 100 μl). Add 100 μl blocking buffer 53 μl diluted primary antibody and shake at room temperature for 1 h. Remove diluted primary antibody and wash 3× with TBST buffer (200, 200, and 100 μl). Add 100 μl blocking buffer to each well and shake at room temperature for 10 min. Remove blocking buffer. Add 100 μl diluted secondary antibody. Shake at room temperature for 30 min. […] Immediately, read chemiluminescence (BioTek Synergy 2 plate reader).

TET1 = molecular target: T2, TET1 (Homo sapiens, UniProt Q8NFU7); experiment: Chemiluminescence ELISA of TET1-mediated oxidation of methylated DNA; type: biochemical; conditions: for TET1 inhibition (in words): compound at 100 μM in ELISA
T2 construct: purchased Bioscience 50651
Procedure: To determine whether cytosine analogs inhibited TET-mediated oxidation of methylated DNA, the amount of hydroxymethylcytosine in reactions containing TET enzyme alone or TET enzyme and a cytosine analog were determined using chemiluminescence ELISA assays.
Procedure adapted from manual (Bioscience; TET1: 50651, TET2: 50652). Prepare TBST buffer (1× TBS, pH 8.0, containing 0.05% Tween-20). Dilute 4.0× TET Assay Buffer (TAB) to 1.5× TAB and 1.0× TAB evenly with diluted water. Thaw and dilute (5.0 ng/μl for TET1 and 10 ng/μl for TET2) TET enzyme from kit with 1.0× TAB. Dilute primary antibody 100-fold with blocking buffer. Diluted secondary antibody 1000-fold with blocking buffer. Dilute DMSO inhibitor solutions with 1.0× TAB to wanted concentration (ensure solutions are 5% DMSO). To 96-well plate provided, add 200 μl TBST buffer to each well and incubate at room temperature for 15 min. Remove TBST buffer and add 20 μl 1.5× TAB, 10 μl inhibitor solution, 20 μl diluted TET to each well. For controls, add 10 μl 5% DMSO solution and 20 μl 1.0× TAB. Incubate at room temperature for 2 h. Remove reaction solution and wash 3× with TBST buffer (200, 200, and 100 μl). Add 100 μl […] diluted primary antibody and shake at room temperature for 1 h. Remove diluted primary antibody and wash 3× with TBST buffer (200, 200, and 100 μl). Add 100 μl blocking buffer to each well and shake at room temperature for 10 min. Remove blocking buffer. Add 100 μl diluted secondary antibody. Shake at room temperature for 30 min. Remove diluted secondary antibody and wash 3× with TBST buffer (200, 200, and 100 μl). Add 100 μl blocking buffer to each well and shake at room temperature for 10 min. Remove blocking buffer. Combine horseradish peroxidase (HRP) substrate A and HRP substrate B at 1:1 ratio. Add 100 μl of HRP solution to each well. Immediately, read chemiluminescence (BioTek Synergy 2 plate reader).

HT22 cells = experiment: Whole genome bisulfite sequencing in HT22 cells; type: cell-based, mouse; conditions: 10 μM, 24 hours
Procedure: Whole genome bisulfite sequencing in HT22 cells was performed. […] Generally, the genome was broken into windows each containing 25 CpGs, and an analysis was performed to determine differentially methylated regions. […] Additionally, the differentially methylated regions (DMRs) were highly associated with DMRs detected for those Tet gene deficient cells/tissue.
HT-22 cells were provided by David Schubert at the Salk Institute (San Diego, Calif.). Cells were cultured in Dulbecco's Modified Eagle Medium (Life Technologies, Carlsbad, Calif.) supplemented with 10% FBS, 100 U/ml penicillin, and 100 μg/ml streptomycin (Life Technologies, Carlsbad, Calif.) at 37° C. and 5% CO2. […]
Cells were lysed and gDNA was extracted (Qiagen, DNeasy), bisulfite converted (Accel-NGS Methyl-Seq DNA Library, Swift), and sequenced (Hudson Alpha Discovery) on the Illumina platform (HiSeq_X10, paired end, 150 bp, 500 million reads per sample). Reads were QC'd by FastQC (v0.11.5), filtered by quality (average quality score <20), Illumina adapters removed, and sequencing primers trimmed using Trim_Galore! […] The filtered and trimmed reads were then mapped to the mouse genome (mm10), deduplicated, and CpG methylation levels extracted using Bismark (v0.19.0). Altered CpG methylation was determined by dividing the mouse genome into ˜850,000 windows, each containing 25 CpG sites. […]

DNMT3a = experiment: Inhibitory assay for DNMT3a; type: biochemical; conditions: concentration of 500 μM

T2 sequence (Q8NFU7 whole entry): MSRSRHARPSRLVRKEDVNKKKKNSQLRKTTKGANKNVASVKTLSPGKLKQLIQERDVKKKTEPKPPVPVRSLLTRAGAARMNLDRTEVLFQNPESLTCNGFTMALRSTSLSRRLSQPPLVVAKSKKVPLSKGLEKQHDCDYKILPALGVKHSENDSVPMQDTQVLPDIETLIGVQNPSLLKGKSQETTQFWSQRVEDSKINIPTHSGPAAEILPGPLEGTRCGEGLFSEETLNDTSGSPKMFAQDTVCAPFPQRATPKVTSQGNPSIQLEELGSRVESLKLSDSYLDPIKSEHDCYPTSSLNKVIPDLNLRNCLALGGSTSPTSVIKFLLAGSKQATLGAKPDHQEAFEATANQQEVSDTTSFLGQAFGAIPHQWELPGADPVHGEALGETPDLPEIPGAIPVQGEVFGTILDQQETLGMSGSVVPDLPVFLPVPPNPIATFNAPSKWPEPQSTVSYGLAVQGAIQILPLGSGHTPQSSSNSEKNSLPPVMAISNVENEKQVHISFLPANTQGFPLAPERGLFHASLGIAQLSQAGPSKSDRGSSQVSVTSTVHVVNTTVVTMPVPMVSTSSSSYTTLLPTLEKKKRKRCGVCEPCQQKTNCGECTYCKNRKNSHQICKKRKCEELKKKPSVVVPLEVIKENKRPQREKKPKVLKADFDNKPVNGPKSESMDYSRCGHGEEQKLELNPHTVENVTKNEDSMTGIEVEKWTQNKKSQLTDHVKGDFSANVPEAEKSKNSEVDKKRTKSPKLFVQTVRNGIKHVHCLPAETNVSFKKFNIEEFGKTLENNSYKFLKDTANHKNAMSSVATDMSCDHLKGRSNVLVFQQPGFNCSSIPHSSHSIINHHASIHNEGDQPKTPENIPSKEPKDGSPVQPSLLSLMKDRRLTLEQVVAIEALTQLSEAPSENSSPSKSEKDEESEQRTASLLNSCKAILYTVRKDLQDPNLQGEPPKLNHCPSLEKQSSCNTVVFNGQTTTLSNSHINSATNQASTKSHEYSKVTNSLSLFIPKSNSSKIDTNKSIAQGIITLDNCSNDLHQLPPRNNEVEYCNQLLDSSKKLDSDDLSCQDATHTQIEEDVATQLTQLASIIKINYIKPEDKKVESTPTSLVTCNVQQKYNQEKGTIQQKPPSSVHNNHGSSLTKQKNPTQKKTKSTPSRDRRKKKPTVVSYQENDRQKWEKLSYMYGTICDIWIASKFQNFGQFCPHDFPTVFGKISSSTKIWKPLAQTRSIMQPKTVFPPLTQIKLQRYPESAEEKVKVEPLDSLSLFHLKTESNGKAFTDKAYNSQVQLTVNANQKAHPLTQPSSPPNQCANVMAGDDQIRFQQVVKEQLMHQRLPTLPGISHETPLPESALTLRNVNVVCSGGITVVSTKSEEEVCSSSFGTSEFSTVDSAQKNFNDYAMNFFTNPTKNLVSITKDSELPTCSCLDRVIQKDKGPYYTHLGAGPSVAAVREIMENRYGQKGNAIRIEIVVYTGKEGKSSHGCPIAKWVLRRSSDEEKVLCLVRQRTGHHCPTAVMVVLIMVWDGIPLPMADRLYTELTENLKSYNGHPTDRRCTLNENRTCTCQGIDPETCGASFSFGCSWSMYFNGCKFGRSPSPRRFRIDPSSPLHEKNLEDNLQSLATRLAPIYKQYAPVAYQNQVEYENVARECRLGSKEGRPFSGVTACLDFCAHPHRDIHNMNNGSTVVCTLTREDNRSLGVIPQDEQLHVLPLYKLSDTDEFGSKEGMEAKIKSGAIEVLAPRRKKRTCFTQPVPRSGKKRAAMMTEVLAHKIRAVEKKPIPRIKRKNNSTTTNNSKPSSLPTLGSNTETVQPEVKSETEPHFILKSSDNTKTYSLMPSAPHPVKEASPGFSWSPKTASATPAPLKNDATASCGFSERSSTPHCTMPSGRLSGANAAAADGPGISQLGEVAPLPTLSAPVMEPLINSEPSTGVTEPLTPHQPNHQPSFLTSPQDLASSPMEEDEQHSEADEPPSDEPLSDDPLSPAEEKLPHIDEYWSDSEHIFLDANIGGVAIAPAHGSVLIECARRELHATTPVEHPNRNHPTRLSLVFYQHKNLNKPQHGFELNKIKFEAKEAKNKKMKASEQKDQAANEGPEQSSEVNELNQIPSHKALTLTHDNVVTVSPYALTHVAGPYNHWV

- IC50 (TET2): 98 µM
SMILES: Nc1nc(=O)n(-c2ccccc2)cc1Cl [Bobcat216, 4-amino-5-chloro-1-phenylpyrimidin-2(1H)-one]

- TET1 inhibition (in words) (TET1): significantly reduced TET1 inhibition
SMILES: Nc1nc(=O)n(-c2ccc(-c3ccccc3)cc2)cc1Cl [Bobcat219, 1-([1,1′-biphenyl]-4-yl)-4-amino-5-chloropyrimidin-2(1H)-one]

- TET1 inhibition (in words) (TET1): significantly reduced TET1 inhibition
SMILES: Nc1nc(=O)n(-c2ccccc2-c2ccccc2)cc1Cl [Bobcat337, 1-([1,1′-biphenyl]-2-yl)-4-amino-5-chloropyrimidin-2(1H)-one]

- TET1 inhibition (in words) (TET1): significantly enhanced activity
- TET1 inhibition (in words) (TET1; listed as 3-biphenyl): significantly increased TET1 inhibition
- IC50 (TET1; dose-response, N=3): 33 µM
SMILES: Nc1nc(=O)n(-c2cccc(-c3ccccc3)c2)cc1Cl [Bobcat339, 1-([1,1′-biphenyl]-3-yl)-4-amino-5-chloropyrimidin-2(1H)-one]
- differentially methylated regions (windows of 25 CpGs) (HT22 cells): A thousand such regions were observed, most of which are hypermethylated
- global CpG methylation (HT22 cells): significant change in global CpG methylation
- inhibition of DNMT3a (DNMT3a): failing to show substantial inhibition; also recorded: but not DNMT3a
